# From patent publication US20240327356A1, “PYRIMIDINE BASED RAS MODULATORS AND USES THEREOF” (QUANTA THERAPEUTICS, INC., priority 2021, published 2024)
# Tests used:
# [1] = molecular target: KRAS^G12D-FMe.RAF1^RBDCRD complex (Homo sapiens, UniProt P01116, G12D); experiment: SHG assay: binding to bilayer-tethered KRAS G12D/RAF1 complex; conditions: GppNHp-loaded complex on PS bilayer; compound 0.027-40 μM, monitored over 60 min
# Protocol: Compounds suspected to carry intrinsic SHG activity were tested in the presence of an unlabeled KRAS^G12D-FMe.RAF1^RBDCRD complex to monitor binding. PS bilayer was prepared from PS-enriched small unilamellar vesicles (SUVs) purchased from Biodesy, Inc. The concentrated SUVs were diluted in TBS buffer containing 5 mM CaCl2 and incubated on a glass-bottom 384-well Biodesy Delta™ assay plate to allow bilayer formation. Equimolar amounts of GppNHp-loaded KRAS^G12D-FMe and RAF1^RBDCRD were mixed and incubated together on PS bilayer overnight at 4° C. The following day, untethered protein was removed by washing with assay buffer (20 mM Hepes, pH 7.4, […], 1 mM TCEP, 5 μM GppNHp). The SHG signal produced by bilayer-tethered complex was ready using the Biodesy Delta™ platform where each well was pulsed with an 800 nm laser and the resulting second harmonic signal intensity at 400 nm was collected. Compounds were diluted into the same assay buffer and applied to the complex at a final concentration range spanning 0.027 μM-40 μM and the SHG intensity of each well was monitored at 5 minute intervals over a 60 minute time period.
# [2] = test system: Phospho-ERK (Thr202/Tyr204) in MiaPaCa-2 cells; experiment: pERK inhibition in MiaPaca-2 cell line (HTRF); type: cell-based; conditions: Homo sapiens, MIA PaCa-2, 1 hour incubation with compound
# Protocol: MiaPaCa-2 cells (ATCC CRL-1420) were cultured in high glucose DMEM (Gibco 11965092) containing 10% fetal bovine serum (Gibco 1993708) and 1× Penicillin/Streptomycin, at 37° C. in a humid atmosphere of 5% CO2 in the air. Cells were plated in tissue-culture treated 96-well plates at a density of 10,000 cells/well and allowed to attach for 16 hours. The medium was then removed, and diluted compounds were added in a final concentration of 0.5% DMSO. After 1 hour of incubation, cells were lysed by the lysis buffer supplied with the Phospho-ERK (Thr202/Tyr204) cellular HTRF kit (Cisbio 64ERKPEH) and transferred to a 384-well low-volume white plate (PerkinElmer 6008280). The cell lysates were treated with the detection reagents supplied with the HTRF kit for 4 hours at ambient temperature in darkness. Two fluorescence intensities at the wavelengths (665 and 620 nm) were measured by the Envision plate reader (Perkin Elmer), and the data were processed and fitted to a 4-parameter logistic model for IC50 calculation (GraphPad Prism 9).
SMILES,EC50 [1] [µM],IC50 [2] [µM]
"NCC1CCN(c2nc(-c3ccc(C(F)(F)F)cc3F)ncc2C2CCNC2)C1 (stereo not shown) [Compound 17, [1-[2-[2-fluoro-4-(trifluoromethyl)phenyl]-5-pyrrolidin-3-yl-pyrimidin-4-yl]pyrrolidin-3-yl]methanamine]",1 to 10,1 to 10
"NCC1CCN(c2nc(-c3ccc(C(F)(F)F)cc3F)ncc2CNC(=O)Nc2ccccc2)C1 (stereo not shown) [Compound 19, 1-[[4-[3-(aminomethyl)pyrrolidin-1-yl]-2-[2-fluoro-4-(trifluoromethyl)phenyl]pyrimidin-5-yl]methyl]-3-phenyl-urea]",1 to 10,1 to 10
NCC1CCN(c2nc(-c3ccc(Cl)cc3NC(=O)C3(F)CC3)ncc2C2=CCNC2)C1 (stereo not shown) [Compound 23],1 to 10,1 to 10
NCC1CCN(c2nc(-c3ccc(C(F)(F)F)cc3F)ncc2CNC(=O)C2(CN)CC2)C1 (stereo not shown) [Compound 25],1 to 10,10 to 50
N#CC1(C(=O)NCc2cnc(-c3ccc(C(F)(F)F)cc3F)nc2N2CCC(CN)C2)CC1 (stereo not shown) [Compound 28],10 to 50,1 to 10
N#CC1(C(=O)N2CC=C(c3cnc(-c4ccc(Cl)c(C(F)(F)F)c4)nc3N3CCC(CN)C3)C2)CC1 (stereo not shown) [Compound 29],1 to 10,1 to 10
N#Cc1cc(-c2ncc(C3=CCN(C(=O)C4(C#N)CC4)C3)c(N3CCC(CN)C3)n2)ccc1Cl (stereo not shown) [Compound 30],10 to 50,1 to 10
NC[C@@H]1CCCN1c1nc(-c2ccc(Cl)c(C(F)(F)F)c2)ncc1C1=CCNC1 [Compound 31],< 0.1,1 to 10
Cc1ccc(-c2ncc(C3=CCNC3)c(N3CCC(CN)C3)n2)cc1C(F)(F)F (stereo not shown) [Compound 32],0.1 to 1,1 to 10
NC[C@H]1CCCN1c1nc(-c2ccc(Cl)c(C(F)(F)F)c2)ncc1C1=CCNC1 [Compound 33],1 to 10,1 to 10
"NCCOc1nc(-c2ccc(Cl)c(C(F)(F)F)c2)ncc1C1=CCNC1 [Compound 34, 2-[2-[4-chloro-3-(trifluoromethyl)phenyl]-5-(2,5-dihydro-1H-pyrrol-3-yl)pyrimidin-4-yl]oxyethanamine]",0.1 to 1,1 to 10
N#Cc1cc(-c2ncc(CNC(=O)C3(F)CC3)c(N3CCC(CN)C3)n2)ccc1Cl (stereo not shown) [Compound 35],10 to 50,1 to 10
N#CC1(C(=O)N2CC=C(c3cnc(-c4ccc(Cl)c(C(F)(F)F)c4)nc3OCCN)C2)CC1 [Compound 36],1 to 10,1 to 10
N#CC1(C(=O)NCc2cnc(-c3ccc(Cl)c(C(F)(F)F)c3)nc2N2C[C@@H](N)[C@H](O)C2)CC1 [Compound 37],10 to 50,1 to 10
N#CC1(C(=O)NCc2cnc(-c3ccc(Cl)c(C(F)(F)F)c3)nc2OC2CCNC2)CC1 (stereo not shown) [Compound 38],10 to 50,1 to 10
N#CC1(C(=O)NCc2cnc(-c3ccc(Cl)c(C(F)(F)F)c3)nc2OC2CNC2)CC1 [Compound 39],1 to 10,1 to 10
N[C@@H]1CN(c2nc(-c3ccc(Cl)c(C(F)(F)F)c3)ncc2C2=CCNC2)C[C@H]1O [Compound 40],0.1 to 1,1 to 10
N[C@@H]1CN(c2nc(-c3ccc(Cl)cc3NC(=O)C3CC3)ncc2C2=CCNC2)C[C@H]1O [Compound 43],10 to 50,10 to 50
N[C@@H]1CN(c2nc(-c3ccc(Cl)cc3NC(=O)C3(F)CC3)ncc2C2=CCNC2)C[C@H]1O [Compound 44],1 to 10,1 to 10
"N#Cc1cc(-c2ncc(CNc3ccccc3)c(N3CCC(CN)C3)n2)ccc1C(F)(F)F (stereo not shown) [Compound 45, 5-[4-[3-(aminomethyl)pyrrolidin-1-yl]-5-(anilinomethyl)pyrimidin-2-yl]-2-(trifluoromethyl)benzonitrile]",1 to 10,1 to 10
N#CC1(C(=O)NCc2cnc(-c3ccc(Cl)c(C(F)(F)F)c3)nc2OCCN)CC1 [Compound 46],1 to 10,1 to 10

SMILES,EC50 [1] [µM],IC50 [2] [µM]
N#CC1(C(=O)NCc2cnc(-c3ccc(Cl)c(C(F)(F)F)c3)nc2N2CCC(F)(CN)C2)CC1 (stereo not shown) [Compound 47],1 to 10,1 to 10
N#CC1(C(=O)NCc2cnc(-c3ccc(Cl)c(C(F)(F)F)c3)nc2N2CCC(N)CC2)CC1 [Compound 48],1 to 10,1 to 10
"NCC1CCN(c2nc(-c3ccc(Cl)c(C(F)(F)F)c3)ncc2CNCCO)C1 (stereo not shown) [Compound 49, 2-[[4-[3-(aminomethyl)pyrrolidin-1-yl]-2-[4-chloro-3-(trifluoromethyl)phenyl]pyrimidin-5-yl]methylamino]ethanol]",1 to 10,1 to 10
N#CC1(C(=O)NCc2cnc(-c3ccc(Cl)c(C(F)(F)F)c3)nc2OC2CC(N)C2)CC1 (stereo not shown) [Compound 50],1 to 10,1 to 10
N#CC1(C(=O)NCc2cnc(-c3ccc(Cl)c(C(F)(F)F)c3)nc2N2CCOC(CN)C2)CC1 (stereo not shown) [Compound 51],1 to 10,1 to 10
N#CC1(C(=O)NCc2cnc(-c3ccc(Cl)c(C(F)(F)F)c3)nc2N2CCNCC2)CC1 [Compound 54],1 to 10,1 to 10
N#CC1(C(=O)NCc2cnc(-c3ccc(Cl)c(C(F)(F)F)c3)nc2N2CCC[C@H]2CN)CC1 [Compound 55],10 to 50,1 to 10
NCC1CCN(c2nc(-c3ccc(Cl)c(C(F)(F)F)c3)ncc2[N+](=O)[O-])C1 (stereo not shown) [Compound 56],10 to 50,10 to 50
"N#CC1(C(=O)NCc2cnc(-c3ccc(Cl)c(C(F)(F)F)c3)nc2C2=CCC(N)CC2)CC1 (stereo not shown) [Compound 58, N-[[4-(4-aminocyclohexen-1-yl)-2-[4-chloro-3-(trifluoromethyl)phenyl]pyrimidin-5-yl]methyl]-1-cyano-cyclopropanecarboxamide]",1 to 10,1 to 10
COC(=O)NCc1cnc(-c2ccc(C)c(Cl)c2)nc1N1CCC(CN)C1 (stereo not shown) [Compound 60],1 to 10,1 to 10
N[C@H]1CN(c2nc(-c3ccc(Cl)c(C(F)(F)F)c3)ncc2C2=CCNC2)C[C@@H]1O [Compound 61],1 to 10,1 to 10
Cc1ccc(-c2ncc(CNC(=O)C3(C#N)CC3)c(N3CCC(F)(CN)C3)n2)cc1Cl (stereo not shown) [Compound 63],1 to 10,0.1 to 1
Cc1ccc(-c2ncc(CNC(=O)C3(C#N)CC3)c(N3CC[C@H](N)C3)n2)cc1Cl [Compound 65],1 to 10,0.1 to 1
N#CC1(C(=O)NCc2cnc(-c3ccc(Cl)c(C(F)(F)F)c3)nc2N2CCC[C@@H]2CN)CC1 [Compound 66],1 to 10,1 to 10
Cc1ccc(-c2ncc(CNC(=O)C3(C#N)CC3)c(N3CCC[C@H]3CN)n2)cc1Cl [Compound 68],10 to 50,1 to 10
CN1CCN(c2nc(-c3ccc(Cl)c(C(F)(F)F)c3)ncc2CNC(=O)C2(C#N)CC2)CC1 [Compound 71],1 to 10,1 to 10
N#CC1(C(=O)NCc2cnc(-c3ccc(Cl)c(C(F)(F)F)c3)nc2OCCCN)CC1 [Compound 74],1 to 10,1 to 10
N#CC1(C(=O)NCc2cnc(-c3ccc(C(F)(F)F)c(Cl)c3)nc2N2CCC(CN)C2)CC1 (stereo not shown) [Compound 75],1 to 10,1 to 10
C=C(F)C(=O)NCc1cnc(-c2ccc(C)c(Cl)c2)nc1N1CCC(CN)C1 (stereo not shown) [Compound 76],1 to 10,1 to 10
Cc1ccc(-c2ncc(CNC(=O)C3(C#N)CC3)c(C3=CCC(N)CC3)n2)cc1Cl (stereo not shown) [Compound 77],1 to 10,1 to 10
